From ChEMBL document CHEMBL1138746, “Indolebutylamines as selective 5-HT(1A) agonists” (J Med Chem, 2004)

What was measured:
D(3) dopamine receptor = D(3) dopamine receptor (Homo sapiens, UniProt P35462); assay: Inhibition of dopamine D3 receptor
D(4) dopamine receptor = target: T1, D(4) dopamine receptor (Homo sapiens, UniProt P21917); assay: Inhibition of dopamine D4 receptor
T1 sequence (P21917 whole entry): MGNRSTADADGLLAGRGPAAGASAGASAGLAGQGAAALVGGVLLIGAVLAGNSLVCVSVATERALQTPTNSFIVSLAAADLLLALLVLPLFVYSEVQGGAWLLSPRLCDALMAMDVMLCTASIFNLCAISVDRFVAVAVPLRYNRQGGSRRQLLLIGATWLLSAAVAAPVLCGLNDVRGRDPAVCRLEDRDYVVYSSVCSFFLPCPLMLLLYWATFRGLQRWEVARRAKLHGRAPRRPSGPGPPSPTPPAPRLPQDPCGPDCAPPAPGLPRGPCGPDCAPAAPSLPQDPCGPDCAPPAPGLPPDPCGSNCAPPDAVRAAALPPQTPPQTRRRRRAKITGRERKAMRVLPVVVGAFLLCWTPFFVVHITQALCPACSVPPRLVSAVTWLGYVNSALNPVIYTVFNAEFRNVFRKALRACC

[1] = Inhibition of hydroxytryptamine 2A receptor
[2] = target: T2, Adrenergic receptor alpha-2 (Homo sapiens, UniProt P08913+P18825+P18089); assay: Inhibition of Alpha-2 adrenergic receptor; format: protein assay
T2 sequence (P08913 whole entry): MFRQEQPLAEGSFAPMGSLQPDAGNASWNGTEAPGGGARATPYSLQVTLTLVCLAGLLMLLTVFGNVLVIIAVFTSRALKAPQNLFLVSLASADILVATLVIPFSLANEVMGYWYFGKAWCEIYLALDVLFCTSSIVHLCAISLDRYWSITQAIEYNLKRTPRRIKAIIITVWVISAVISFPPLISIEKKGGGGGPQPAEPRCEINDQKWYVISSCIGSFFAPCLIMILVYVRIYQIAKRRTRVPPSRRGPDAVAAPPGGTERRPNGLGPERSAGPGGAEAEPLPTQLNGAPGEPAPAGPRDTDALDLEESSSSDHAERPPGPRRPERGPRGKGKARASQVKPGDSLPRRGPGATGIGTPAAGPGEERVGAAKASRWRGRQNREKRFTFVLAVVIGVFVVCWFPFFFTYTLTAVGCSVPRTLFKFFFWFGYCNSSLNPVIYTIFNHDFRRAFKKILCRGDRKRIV
T2 sequence (P18825 whole entry): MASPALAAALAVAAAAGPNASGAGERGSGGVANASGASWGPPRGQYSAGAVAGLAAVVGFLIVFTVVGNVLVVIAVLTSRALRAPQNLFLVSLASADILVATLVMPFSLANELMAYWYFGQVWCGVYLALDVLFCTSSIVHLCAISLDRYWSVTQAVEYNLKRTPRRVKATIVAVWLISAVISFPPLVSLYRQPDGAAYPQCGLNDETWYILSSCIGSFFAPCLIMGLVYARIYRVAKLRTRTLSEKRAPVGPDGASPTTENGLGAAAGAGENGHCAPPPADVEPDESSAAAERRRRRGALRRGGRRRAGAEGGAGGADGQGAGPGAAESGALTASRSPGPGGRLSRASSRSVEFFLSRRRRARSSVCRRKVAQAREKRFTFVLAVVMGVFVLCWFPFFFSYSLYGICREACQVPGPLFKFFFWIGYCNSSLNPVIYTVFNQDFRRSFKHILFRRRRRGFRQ
T2 sequence (P18089 whole entry): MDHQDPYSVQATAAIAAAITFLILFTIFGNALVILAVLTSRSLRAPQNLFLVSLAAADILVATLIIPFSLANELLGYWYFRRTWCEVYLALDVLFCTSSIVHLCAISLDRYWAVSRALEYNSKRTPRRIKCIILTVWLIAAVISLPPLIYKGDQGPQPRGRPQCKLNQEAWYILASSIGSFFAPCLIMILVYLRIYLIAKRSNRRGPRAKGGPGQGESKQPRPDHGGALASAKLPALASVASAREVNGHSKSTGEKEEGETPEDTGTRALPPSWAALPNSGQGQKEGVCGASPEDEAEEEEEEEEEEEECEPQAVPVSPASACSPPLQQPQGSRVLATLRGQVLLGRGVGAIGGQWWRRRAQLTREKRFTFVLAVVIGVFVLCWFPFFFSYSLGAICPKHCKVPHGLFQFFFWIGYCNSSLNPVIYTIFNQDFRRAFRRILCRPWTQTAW

Chain of D(3) dopamine receptor (P35462 whole entry): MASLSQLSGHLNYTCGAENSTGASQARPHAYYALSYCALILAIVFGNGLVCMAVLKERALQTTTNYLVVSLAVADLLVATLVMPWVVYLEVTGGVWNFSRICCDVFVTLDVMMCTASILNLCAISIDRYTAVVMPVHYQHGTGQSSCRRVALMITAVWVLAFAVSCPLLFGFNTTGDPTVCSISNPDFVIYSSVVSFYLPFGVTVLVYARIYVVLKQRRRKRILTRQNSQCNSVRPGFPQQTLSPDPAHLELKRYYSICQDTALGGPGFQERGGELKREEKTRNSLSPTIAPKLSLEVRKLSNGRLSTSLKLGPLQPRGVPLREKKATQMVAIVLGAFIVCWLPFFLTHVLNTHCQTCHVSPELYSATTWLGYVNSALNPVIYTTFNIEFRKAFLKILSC

IC50 (D(3) dopamine receptor): 1.2 µM
IC50 (D(4) dopamine receptor): 1.8 µM
IC50 [1]: 2.6 µM
IC50 [2]: 1 µM
SMILES: O=C1c2ccccc2S(=O)(=O)N1CCCCN1CCN(c2ncccn2)CC1 [IPSAPIRONE]
